We go through 14 compounds from US11147272B2, “Pyridone compounds and agricultural and horticultural fungicides comprising the same as active ingredients” (MITSUI CHEMICALS AGRO, INC., priority 2017, dated 2021).

For experiment [1], the system named is Magnaporthe grisea. Kind of experiment: whole plant or invertebrate. The experiment is classed as in vivo. The note with it: 250 ppm drug solution sprayed on test plant.
Experiment [2] relates to Alternaia brassicicola. Kind of experiment: Test Example C: Alternaria sooty spot on cabbage. The class given is in vivo. The note with it: 250 ppm drug solution sprayed on test plant. The text has this:
Seeds of a test plant (cabbage variety: Shikidori) were planted and cultivated until the cotyledons extended.
<Control Value> Control value=100{1−(n/3)}

Experiment [3] deals with Puccinia recondita. Kind of experiment: Test Example E: Brown rust on wheat. The experiment is classed as in vivo. The settings on record: 250 ppm drug solution sprayed on test plant.
The test system of experiment [4] is Phytophthora infestans. As to the kind of experiment: whole plant or invertebrate. The note with it: 250 ppm drug solution sprayed on test plant. The class given is in vivo.
Experiment [5] relates to Botrytis cinerea. Kind of experiment: Test Example B: Gray mold on tomato. The note with it: 250 ppm drug solution sprayed on test plant.
In experiment [6] the test system is Plasmopara viticola. As to the kind of experiment: Test Example G: Downy mildew on vine. The note with it: 250 ppm drug solution sprayed (2.5 ml/pot), grape Neomuscat, 7 to 10 days after inoculation.
Experiment [7] relates to Colletotrichum orbiculare. As to the kind of experiment: Test Example H: Anthracnose on cucumber. The settings on record: 250 ppm drug solution sprayed (2.5 ml/pot), cucumber Sagami Hanjiro, 6 to 10 days after inoculation.
Experiment [8] relates to Blumeria graminis f. sp. hordei. Kind of experiment: Test Example D: Powdery mildew on barley. The settings on record: 250 ppm drug solution sprayed on test plant.

SMILES strings stand for the structures.

As to `COc1cc(F)c(-c2c(C(C)(OC)C(C)C)cc(Cl)c(=O)n2C)c(F)c1` (stereo not shown) [compound 488], the “Test A control value” in experiment [1] was “H (more than 50% control value)”. Also, the “Test C control value” in experiment [2] is “H (more than 50% control value)”. Further, the “Test E control value” in experiment [3] is reported as “H (more than 50% control value)”. The “Test F control value” in experiment [4] is given as “L (50% or less control value)”. Moreover, in experiment [5], the “Test B control value” was “H (more than 50% control value)”. The “Test G control value” in experiment [6] is reported as “L (50% or less control value)”. The “Test H control value” in experiment [7] is reported as “H (more than 50% control value)”. In addition, the “Test D control value” in experiment [8] is given as “L (50% or less control value)”.
With `CCOC(C)(c1cc(Cl)c(=O)n(C)c1-c1c(F)cc(OC)cc1F)C(C)C` (stereo not shown) [compound 489], the “Test A control value” in experiment [1] is given as “H (more than 50% control value)”. Moreover, in experiment [2], the “Test C control value” is “H (more than 50% control value)”. Also, in experiment [3], the “Test E control value” was “H (more than 50% control value)”. Moreover, in experiment [4], the “Test F control value” is given as “L (50% or less control value)”. Further, the “Test B control value” in experiment [5] is given as “H (more than 50% control value)”. The “Test G control value” in experiment [6] was “L (50% or less control value)”. In addition, the “Test H control value” in experiment [7] is “H (more than 50% control value)”. Besides, the “Test D control value” in experiment [8] is given as “H (more than 50% control value)”.
For the compound `CCC(O)c1cc(Cl)c(=O)n(C)c1-c1c(F)cc(F)cc1F` (stereo not shown) [compound 490], the “Test A control value” in experiment [1] was “L (50% or less control value)”. In addition, the “Test C control value” in experiment [2] is reported as “L (50% or less control value)”. Further, the “Test E control value” in experiment [3] is recorded as “H (more than 50% control value)”. For the same compound, in experiment [4], the “Test F control value” was “L (50% or less control value)”. Also, the “Test B control value” in experiment [5] is on record as “L (50% or less control value)”. For the same compound, in experiment [6], the “Test G control value” is “H (more than 50% control value)”. Moreover, in experiment [7], the “Test H control value” is recorded as “L (50% or less control value)”. The “Test D control value” in experiment [8] is reported as “L (50% or less control value)”.
As to `CCCc1ccc(=O)n(CC(F)F)c1-c1c(F)cccc1F` [compound 491], in experiment [1], the “Test A control value” is “L (50% or less control value)”. Further, the “Test C control value” in experiment [2] is “H (more than 50% control value)”. Further, in experiment [3], the “Test E control value” was “H (more than 50% control value)”. Also, the “Test F control value” in experiment [4] is “L (50% or less control value)”. The “Test B control value” in experiment [5] is “H (more than 50% control value)”. Further, the “Test G control value” in experiment [6] is reported as “L (50% or less control value)”. For the same compound, the “Test H control value” in experiment [7] is recorded as “L (50% or less control value)”. Besides, the “Test D control value” in experiment [8] is recorded as “H (more than 50% control value)”.
Turning to `CCCc1cc(Cl)c(=O)n(CC(F)F)c1-c1c(F)cccc1F` [compound 492], the “Test A control value” in experiment [1] is “H (more than 50% control value)”. Moreover, in experiment [2], the “Test C control value” is recorded as “H (more than 50% control value)”. The “Test E control value” in experiment [3] is on record as “H (more than 50% control value)”. For the same compound, the “Test F control value” in experiment [4] is on record as “L (50% or less control value)”. Also, in experiment [5], the “Test B control value” is on record as “H (more than 50% control value)”. Also, the “Test G control value” in experiment [6] was “H (more than 50% control value)”. For the same compound, the “Test H control value” in experiment [7] is reported as “H (more than 50% control value)”. Moreover, the “Test D control value” in experiment [8] is listed as “H (more than 50% control value)”.
Consider `CCCc1cc(Br)c(=O)n(CC(F)F)c1-c1c(F)cccc1F` [compound 493], for which the “Test A control value” in experiment [1] is “H (more than 50% control value)”. In addition, the “Test C control value” in experiment [2] was “H (more than 50% control value)”. Also, the “Test E control value” in experiment [3] is “H (more than 50% control value)”. For the same compound, the “Test F control value” in experiment [4] is given as “L (50% or less control value)”. Further, the “Test B control value” in experiment [5] is given as “H (more than 50% control value)”. Moreover, in experiment [6], the “Test G control value” was “H (more than 50% control value)”. Also, in experiment [7], the “Test H control value” was “H (more than 50% control value)”. In addition, in experiment [8], the “Test D control value” is on record as “H (more than 50% control value)”.
In the case of `CCCc1cc(I)c(=O)n(CC(F)F)c1-c1c(F)cccc1F` [compound 494], the “Test A control value” in experiment [1] is “H (more than 50% control value)”. Besides, in experiment [2], the “Test C control value” is listed as “H (more than 50% control value)”. Besides, the “Test E control value” in experiment [3] is recorded as “H (more than 50% control value)”. Moreover, the “Test F control value” in experiment [4] is listed as “L (50% or less control value)”. The “Test B control value” in experiment [5] was “H (more than 50% control value)”. The “Test G control value” in experiment [6] was “H (more than 50% control value)”. In experiment [7], the “Test H control value” is given as “H (more than 50% control value)”. For the same compound, the “Test D control value” in experiment [8] is on record as “H (more than 50% control value)”.
Take `CCC(=O)c1cc(Cl)c(=O)n(C)c1-c1c(F)cc(F)cc1F` [compound 495]: the “Test A control value” in experiment [1] was “L (50% or less control value)”. Moreover, the “Test C control value” in experiment [2] is “H (more than 50% control value)”. In addition, the “Test E control value” in experiment [3] was “H (more than 50% control value)”. Besides, the “Test F control value” in experiment [4] is reported as “L (50% or less control value)”. Besides, the “Test B control value” in experiment [5] is recorded as “H (more than 50% control value)”. In experiment [6], the “Test G control value” is given as “L (50% or less control value)”. The “Test H control value” in experiment [7] was “L (50% or less control value)”. Also, in experiment [8], the “Test D control value” is reported as “H (more than 50% control value)”.
Turning to `COC(c1cc(Cl)c(=O)n(C)c1-c1c(F)cc(F)cc1F)C(C)C` (stereo not shown) [compound 496], the “Test A control value” in experiment [1] is reported as “H (more than 50% control value)”. Moreover, the “Test C control value” in experiment [2] is recorded as “H (more than 50% control value)”. In experiment [3], the “Test E control value” is “H (more than 50% control value)”. Moreover, the “Test F control value” in experiment [4] is recorded as “L (50% or less control value)”. Moreover, the “Test B control value” in experiment [5] is recorded as “H (more than 50% control value)”. In addition, the “Test G control value” in experiment [6] was “H (more than 50% control value)”. For the same compound, the “Test H control value” in experiment [7] is “H (more than 50% control value)”. In addition, the “Test D control value” in experiment [8] is recorded as “H (more than 50% control value)”.
For the compound `CCOC(c1cc(Cl)c(=O)n(C)c1-c1c(F)cc(F)cc1F)C(C)C` (stereo not shown) [compound 497], in experiment [1], the “Test A control value” is “H (more than 50% control value)”. For the same compound, the “Test C control value” in experiment [2] was “H (more than 50% control value)”. Besides, the “Test E control value” in experiment [3] is given as “H (more than 50% control value)”. Further, in experiment [4], the “Test F control value” is reported as “L (50% or less control value)”. The “Test B control value” in experiment [5] is “H (more than 50% control value)”. The “Test G control value” in experiment [6] is given as “H (more than 50% control value)”. For the same compound, the “Test H control value” in experiment [7] is “H (more than 50% control value)”. Moreover, the “Test D control value” in experiment [8] is recorded as “H (more than 50% control value)”.
As to `COc1cc(F)c(-c2c(C(OC)C(C)C)cc(Cl)c(=O)n2C)c(F)c1` (stereo not shown) [compound 498], the “Test A control value” in experiment [1] was “H (more than 50% control value)”. Further, the “Test C control value” in experiment [2] is “H (more than 50% control value)”. The “Test E control value” in experiment [3] was “H (more than 50% control value)”. In addition, the “Test F control value” in experiment [4] is “L (50% or less control value)”. The “Test B control value” in experiment [5] is “H (more than 50% control value)”. Further, in experiment [6], the “Test G control value” is given as “L (50% or less control value)”. Moreover, the “Test H control value” in experiment [7] is reported as “H (more than 50% control value)”. The “Test D control value” in experiment [8] was “L (50% or less control value)”.
On to `CCOC(c1cc(Cl)c(=O)n(C)c1-c1c(F)cc(OC)cc1F)C(C)C` (stereo not shown) [compound 499], for which the “Test A control value” in experiment [1] is given as “H (more than 50% control value)”. The “Test C control value” in experiment [2] is on record as “H (more than 50% control value)”. In experiment [3], the “Test E control value” is listed as “H (more than 50% control value)”. Also, the “Test F control value” in experiment [4] is listed as “L (50% or less control value)”. The “Test B control value” in experiment [5] was “H (more than 50% control value)”. Further, the “Test G control value” in experiment [6] is “H (more than 50% control value)”. Further, the “Test H control value” in experiment [7] is on record as “H (more than 50% control value)”. The “Test D control value” in experiment [8] was “H (more than 50% control value)”.
As to `CCn1c(-c2c(F)cc(OC)cc2F)c(C(C)(O)CC)cc(Br)c1=O` (stereo not shown) [compound 500], the “Test A control value” in experiment [1] is reported as “H (more than 50% control value)”. The “Test C control value” in experiment [2] is listed as “H (more than 50% control value)”. The “Test E control value” in experiment [3] is “H (more than 50% control value)”. Moreover, the “Test F control value” in experiment [4] is “L (50% or less control value)”. Besides, in experiment [5], the “Test B control value” is on record as “H (more than 50% control value)”. Also, in experiment [6], the “Test G control value” was “H (more than 50% control value)”. The “Test H control value” in experiment [7] is “H (more than 50% control value)”. The “Test D control value” in experiment [8] is given as “L (50% or less control value)”.
`CCn1c(-c2c(F)cc(F)cc2F)c(C(OC)C(C)C)cc(Br)c1=O` (stereo not shown) [compound 501]: the “Test A control value” in experiment [1] is reported as “H (more than 50% control value)”. For the same compound, in experiment [2], the “Test C control value” was “H (more than 50% control value)”. For the same compound, the “Test E control value” in experiment [3] is listed as “H (more than 50% control value)”. In addition, the “Test F control value” in experiment [4] was “L (50% or less control value)”. Besides, the “Test B control value” in experiment [5] is reported as “H (more than 50% control value)”. In experiment [6], the “Test G control value” is “L (50% or less control value)”. Also, the “Test H control value” in experiment [7] was “H (more than 50% control value)”. Further, in experiment [8], the “Test D control value” is given as “H (more than 50% control value)”.
